Laboratory results reported in US20240000885A1 (VANDERBILT UNIVERSITY, published 2024).
Where two headings read alike, the source gives them in different places.

Tests used:
[1] = molecular target: interaction of MHV M-GFP with Cherry-MYO5B+D tail (902T) in A549 cells (UniProt P03415+Q9ULV0); type: cell-based, human
[2] = molecular target: interaction of MHV M tail with MYO5B(ABCDE) (UniProt P03415+Q9ULV0); type: cell-based, Mouse Hepatitis Virus (MHV)
pAD-MYO5B(ABCDE) = molecular target: T1, pAD-MYO5B(ABCDE) (human, UniProt Q9ULV0 1235-1439); test: binary yeast 2-hybrid
T1 construct: also called MYO5B ABCDE exons; construct containing just the ABCDE exons
T1 sequence: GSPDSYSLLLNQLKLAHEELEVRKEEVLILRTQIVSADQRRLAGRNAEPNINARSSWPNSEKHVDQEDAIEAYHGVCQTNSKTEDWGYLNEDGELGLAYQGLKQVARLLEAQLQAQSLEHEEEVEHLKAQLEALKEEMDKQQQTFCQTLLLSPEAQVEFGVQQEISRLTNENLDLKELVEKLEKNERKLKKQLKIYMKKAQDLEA

interaction of MHV M-GFP with Cherry-MYO5B+D tail (902T) in A549 cells, sequence (Q9ULV0 902-1848, one chain of several): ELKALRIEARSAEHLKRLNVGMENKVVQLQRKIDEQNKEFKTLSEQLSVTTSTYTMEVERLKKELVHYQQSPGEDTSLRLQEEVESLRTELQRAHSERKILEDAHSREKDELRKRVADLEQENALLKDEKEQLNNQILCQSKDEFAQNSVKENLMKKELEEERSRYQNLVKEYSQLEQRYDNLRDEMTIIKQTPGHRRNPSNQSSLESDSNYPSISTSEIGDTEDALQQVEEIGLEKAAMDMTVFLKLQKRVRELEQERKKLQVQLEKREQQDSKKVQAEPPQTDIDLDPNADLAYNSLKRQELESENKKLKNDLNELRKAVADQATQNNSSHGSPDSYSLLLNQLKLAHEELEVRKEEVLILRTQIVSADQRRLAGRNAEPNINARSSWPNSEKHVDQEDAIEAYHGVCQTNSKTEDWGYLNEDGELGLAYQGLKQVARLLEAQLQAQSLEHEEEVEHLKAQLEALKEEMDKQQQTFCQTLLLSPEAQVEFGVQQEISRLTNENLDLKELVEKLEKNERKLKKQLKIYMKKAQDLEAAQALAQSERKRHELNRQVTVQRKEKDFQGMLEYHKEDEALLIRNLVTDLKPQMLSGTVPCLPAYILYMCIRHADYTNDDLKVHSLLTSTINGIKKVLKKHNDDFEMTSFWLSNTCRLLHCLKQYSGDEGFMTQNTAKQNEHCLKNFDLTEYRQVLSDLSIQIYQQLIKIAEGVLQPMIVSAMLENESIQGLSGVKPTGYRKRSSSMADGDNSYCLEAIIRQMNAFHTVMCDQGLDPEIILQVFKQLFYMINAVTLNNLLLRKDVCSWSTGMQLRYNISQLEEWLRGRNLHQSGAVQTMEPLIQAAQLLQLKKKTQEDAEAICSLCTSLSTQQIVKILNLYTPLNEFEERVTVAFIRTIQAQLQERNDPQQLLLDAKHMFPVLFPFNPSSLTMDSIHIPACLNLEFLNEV

## CS(=O)(=O)Nc1ccc([N+](=O)[O-])cc1Oc1ccccc1 [Nimesulide]
[1]
  inhibition of the interaction between MHV M and MYO5B+D: more equivocal effects
[2]
  identified as hit in initial yeast 2-hybrid screen (loss of b-galactosidase activity): hits

## CN/C(=N/CCSCc1nc[nH]c1C)NC#N [Cimetidine]
[1]
  effect on the co-localization of MHV M with MYO5B+D: no effect

## CN1Cc2c(N)cccc2C(c2ccccc2)C1 (centres unmarked) [Nomifensine]
[1]
  inhibition of the interaction between MHV M and MYO5B+D: did not alter the interaction
[2]; 10 μM, 24 hours
  identified as hit in initial yeast 2-hybrid screen (loss of b-galactosidase activity): hits

## Amiodorone
[1]
  inhibition of the interaction between MHV M and MYO5B+D: showed inhibition
[2]; 10 μM, 24 hours
  identified as hit in initial yeast 2-hybrid screen (loss of b-galactosidase activity): hits

## O=C(O)Cc1ccccc1Nc1c(Cl)cccc1Cl [Diclofenac]
[1]
  inhibition of the interaction between MHV M and MYO5B+D: more equivocal effects
[2]; 10 μM, 24 hours
  identified as hit in initial yeast 2-hybrid screen (loss of b-galactosidase activity): hits

## NC(N)=Nc1nc(CSCCC(N)=NS(N)(=O)=O)cs1 [Famotidine]
[1]
  effect on the co-localization of MHV M with MYO5B+D: no effect

## CNC(=C[N+](=O)[O-])NCCSCc1csc(CN(C)C)n1 [Nizatidine]
[1]
  effect on colocalization of MHV M-GFP with ch-MYO5B+D 902 Tail: disrupts the colocalization
  inhibition of the interaction between MHV M and MYO5B+D: showed inhibition
  lowest concentration causing loss of localization between MHV M and MYO5B+D: 10 pM
  lowest concentration that disrupted co-localization of MHV M-GFP and Cherry-MYO5B+D tail: 100 µM
  lowest dose that disrupted co-localization of MHV M with MYO5B+D: 100 pM
[2]
  identified as hit in initial yeast 2-hybrid screen (loss of b-galactosidase activity): hits

B1: MHV M tail with deletion of the terminal 2 amino acids (other)
chain: SIRLFIRTGSWWSFNPETNNLMCIDMKGTVYVRPIIEDYHTLTATIIRGHLYMQGVKLGTGFSLSDLPAYVTVAKVSHLCTYKRAFLDKVDGVSGFAVYVKSKVGNYRLPSNKPSGADTALL
pAD-MYO5B(ABCDE)
  binding result: binds
